Experimental data reported in patent publication US20200181117A1, “SUBSTITUTED 3-HETEROARYLOXY-1H-PYRAZOLES AND SALTS THEREOF AND THEIR USE AS HERBICIDAL ACTIVE SUBSTANCES” (BAYER CROPSCIENCE AKTIENGESELLSCHAFT, priority 2017, published 2020).

Tests used:
Format in all cases: in vivo
Alopecurus myosuroides [1] = experiment: Pre-emergence herbicidal action; conditions: 1280 g/ha, scored visually after about 3 weeks vs untreated controls
Summary of the method: (§1)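 Test compounds at 1280 g/ha are sprayed onto soil covering freshly sown seeds, using 600 l/ha water with 0.5% additive. Pots stay in the greenhouse about 3 weeks, then activity is rated visually in percent against untreated controls.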

Amaranthus retroflexus [2] = experiment: Pre-emergence herbicidal action; conditions: 1280 g/ha, scored visually after about 3 weeks vs untreated controls
Summary of the method: as §1

Lolium rigidum [3] = experiment: Pre-emergence herbicidal action; conditions: 1280 g/ha, scored visually after about 3 weeks vs untreated controls
Summary of the method: as §1

Matricaria inodora [4] = experiment: Pre-emergence herbicidal action; conditions: 1280 g/ha, scored visually after about 3 weeks vs untreated controls
Summary of the method: as §1

Abutilon theophrasti [5] = experiment: Pre-emergence herbicidal action; conditions: 1280 g/ha, scored visually after about 3 weeks vs untreated controls
Summary of the method: as §1

Pharbitis purpurea [6] = experiment: Pre-emergence herbicidal action; conditions: 1280 g/ha, scored visually after about 3 weeks vs untreated controls
Summary of the method: as §1

Viola tricolor [7] = experiment: Pre-emergence herbicidal action; conditions: 1280 g/ha, scored visually after about 3 weeks vs untreated controls
Summary of the method: as §1

Setaria viridis [8] = experiment: Pre-emergence herbicidal action; conditions: 1280 g/ha, scored visually after about 3 weeks vs untreated controls
Summary of the method: as §1

Stellaria media [9] = experiment: Pre-emergence herbicidal action; conditions: 1280 g/ha, scored visually after about 3 weeks vs untreated controls
Summary of the method: as §1

Hordeum murinum [10] = experiment: Pre-emergence herbicidal action; conditions: 1280 g/ha, scored visually after about 3 weeks vs untreated controls
Summary of the method: as §1

Echinochloa crus-galli [11] = experiment: Pre-emergence herbicidal action; conditions: 1280 g/ha, scored visually after about 3 weeks vs untreated controls
Summary of the method: as §1

Avena fatua = experiment: Pre-emergence herbicidal action; conditions: 1280 g/ha, scored visually after about 3 weeks vs untreated controls
Summary of the method: as §1

Polygonum convolvulus [12] = experiment: Pre-emergence herbicidal action; conditions: 1280 g/ha, scored visually after about 3 weeks vs untreated controls
Summary of the method: as §1

Alopecurus myosuroides [13] = experiment: Post-emergence herbicidal action; conditions: 1280 g/ha, rated visually after about 3 weeks vs untreated controls
Summary of the method: (§2)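 Visual rating against untreated plants, about 3 weeks post-treatment, on a 0-100% scale where 100% means plant death. Treatment: 1280 g/ha of WP/EC preparations with 0.5% additive in 600 l/ha water, sprayed on one-leaf-stage weeds grown in greenhouse sandy loam.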

Amaranthus retroflexus [14] = experiment: Post-emergence herbicidal action; conditions: 1280 g/ha, rated visually after about 3 weeks vs untreated controls
Summary of the method: as §2

Matricaria inodora [15] = experiment: Post-emergence herbicidal action; conditions: 1280 g/ha, rated visually after about 3 weeks vs untreated controls
Summary of the method: as §2

Abutilon theophrasti [16] = experiment: Post-emergence herbicidal action; conditions: 1280 g/ha, rated visually after about 3 weeks vs untreated controls
Summary of the method: as §2

Pharbitis purpurea [17] = experiment: Post-emergence herbicidal action; conditions: 1280 g/ha, rated visually after about 3 weeks vs untreated controls
Summary of the method: as §2

Viola tricolor [18] = experiment: Post-emergence herbicidal action; conditions: 1280 g/ha, rated visually after about 3 weeks vs untreated controls
Summary of the method: as §2

Setaria viridis [19] = experiment: Post-emergence herbicidal action; conditions: 1280 g/ha, rated visually after about 3 weeks vs untreated controls
Summary of the method: as §2

Stellaria media [20] = experiment: Post-emergence herbicidal action; conditions: 1280 g/ha, rated visually after about 3 weeks vs untreated controls
Summary of the method: as §2

Hordeum murinum [21] = experiment: Post-emergence herbicidal action; conditions: 1280 g/ha, rated visually after about 3 weeks vs untreated controls
Summary of the method: as §2

Echinochloa crus-galli [22] = experiment: Post-emergence herbicidal action; conditions: 1280 g/ha, rated visually after about 3 weeks vs untreated controls
Summary of the method: as §2

Polygonum convolvulus [23] = experiment: Post-emergence herbicidal action; conditions: 1280 g/ha, rated visually after about 3 weeks vs untreated controls
Summary of the method: as §2

Lolium rigidum [24] = experiment: Post-emergence herbicidal action; conditions: 1280 g/ha, rated visually after about 3 weeks vs untreated controls
Summary of the method: as §2

Veronica persica = experiment: Post-emergence herbicidal action; conditions: 1280 g/ha, rated visually after about 3 weeks vs untreated controls
Summary of the method: as §2

Row | Compound | herbicidal activity on Alopecurus myosuroides (Alopecurus myosuroides [1]) [%] | herbicidal activity on Amaranthus retroflexus (Amaranthus retroflexus [2]) [%] | herbicidal activity on Lolium rigidum (Lolium rigidum [3]) [%] | herbicidal activity on Matricaria inodora (Matricaria inodora [4]) [%] | herbicidal activity on Abutilon theophrasti (Abutilon theophrasti [5]) [%] | herbicidal activity on Viola tricolor (Viola tricolor [7]) [%] | herbicidal activity on Setaria viridis (Setaria viridis [8]) [%] | herbicidal activity on Stellaria media (Stellaria media [9]) [%] | herbicidal activity on Hordeum murinum (Hordeum murinum [10]) [%] | herbicidal activity on Echinochloa crus-galli (Echinochloa crus-galli [11]) [%] | herbicidal activity on Avena fatua (Avena fatua) [%] | herbicidal activity on Polygonum convolvulus (Polygonum convolvulus [12]) [%] | herbicidal activity on Alopecurus myosuroides (Alopecurus myosuroides [13]) [%] | herbicidal activity on Amaranthus retroflexus (Amaranthus retroflexus [14]) [%] | herbicidal activity on Matricaria inodora (Matricaria inodora [15]) [%] | herbicidal activity on Abutilon theophrasti (Abutilon theophrasti [16]) [%] | herbicidal activity on Pharbitis purpurea (Pharbitis purpurea [17]) [%] | herbicidal activity on Viola tricolor (Viola tricolor [18]) [%] | herbicidal activity on Setaria viridis (Setaria viridis [19]) [%] | herbicidal activity on Stellaria media (Stellaria media [20]) [%] | also measured
1 | Cc1c(Sc2ccccc2)c(Oc2ncccn2)nn1C [Example I-126] | 100 | 100 | 100 | 100 | 100 | 100 | 100 | 100 | 100 | 100 | 100 | 100 | 100 | 100 | 80 | 100 | 100 | 100 | 100 | 100 | herbicidal activity on Pharbitis purpurea (Pharbitis purpurea [6]): 90%; herbicidal activity on Hordeum murinum (Hordeum murinum [21]): 80%; herbicidal activity on Echinochloa crus-galli (Echinochloa crus-galli [22]): 100%; herbicidal activity on Polygonum convolvulus (Polygonum convolvulus [23]): 100%
2 | COc1cnc(Oc2nn(C)c(C)c2Sc2ccccc2)nc1 [Example I-140] | 100 | 100 | 100 | 100 | 100 | 100 | 100 | 100 | 100 | 100 | 100 | 100 | 100 | 100 | 100 | 100 | 100 | 100 | 100 | 90 | herbicidal activity on Lolium rigidum (Lolium rigidum [24]): 80%; herbicidal activity on Hordeum murinum (Hordeum murinum [21]): 80%; herbicidal activity on Echinochloa crus-galli (Echinochloa crus-galli [22]): 100%; herbicidal activity on Veronica persica (Veronica persica): 100%; herbicidal activity on Polygonum convolvulus (Polygonum convolvulus [23]): 100%
